# Read-outs that look alike come from different tables or passages of the source.
# What was measured:
# Format in all cases: cell-based
# [1] = tested on: RPMI-8226; assay: NCI60 five-dose screen; conditions: Homo sapiens
# [2] = tested on: HOP-92; assay: NCI60 five-dose screen; conditions: Homo sapiens
# [3] = tested on: NCI-H23; assay: NCI60 five-dose screen; conditions: Homo sapiens
# [4] = tested on: NCI-H522; assay: NCI60 five-dose screen; conditions: Homo sapiens
# [5] = tested on: HCC-2998; assay: NCI60 five-dose screen; conditions: Homo sapiens
# [6] = tested on: HT29; assay: NCI60 five-dose screen; conditions: Homo sapiens, HT-29
# [7] = tested on: SF-295; assay: NCI60 five-dose screen; conditions: Homo sapiens
# [8] = tested on: SF-539; assay: NCI60 five-dose screen; conditions: Homo sapiens
# [9] = tested on: SNB-75; assay: NCI60 five-dose screen; conditions: Homo sapiens
# [10] = tested on: MALME-3M; assay: NCI60 five-dose screen; conditions: Homo sapiens
# [11] = tested on: SK-MEL-2; assay: NCI60 five-dose screen; conditions: Homo sapiens
# [12] = tested on: OVCAR-3; assay: NCI60 five-dose screen; conditions: Homo sapiens
# [13] = tested on: OVCAR-8; assay: NCI60 five-dose screen; conditions: Homo sapiens
# [14] = tested on: SK-OV-3; assay: NCI60 five-dose screen; conditions: Homo sapiens
# [15] = tested on: UO-31; assay: NCI60 five-dose screen; conditions: Homo sapiens
# [16] = tested on: PC-3; assay: NCI60 five-dose screen; conditions: Homo sapiens
# [17] = tested on: MDA-MB231ATCC; assay: NCI60 five-dose screen; conditions: Homo sapiens, MDA-MB-231
# [18] = tested on: Melanoma panel; assay: NCI60 five-dose screen, panel mean; conditions: Homo sapiens
# [19] = tested on: Prostate Cancer panel; assay: NCI60 five-dose screen, panel mean; conditions: Homo sapiens
# [20] = tested on: 60 human tumor cell lines (NCI60); assay: NCI60 five-dose screen, overall mean
# [21] = tested on: CCRF-CEM; assay: NCI60 one-dose screen; conditions: Homo sapiens, read-out: Growth percent
# [22] = tested on: HL-60(TB); assay: NCI60 one-dose screen; conditions: Homo sapiens
# [23] = tested on: K-562; assay: NCI60 one-dose screen; conditions: Homo sapiens
# [24] = tested on: A549/ATCC; assay: NCI60 one-dose screen; conditions: Homo sapiens
# [25] = tested on: EKVX; assay: NCI60 one-dose screen; conditions: Homo sapiens, read-out: Growth percent
# [26] = tested on: HCC-2998; assay: NCI60 one-dose screen; conditions: Homo sapiens
# [27] = tested on: SW-620; assay: NCI60 one-dose screen; conditions: Homo sapiens
# [28] = tested on: SNB-19; assay: NCI60 one-dose screen; conditions: Homo sapiens
# [29] = tested on: LOX IMVI; assay: NCI60 one-dose screen; conditions: Homo sapiens, read-out: Growth percent
# [30] = tested on: MDA-MB-435; assay: NCI60 one-dose screen; conditions: Homo sapiens
# [31] = tested on: SK-MEL-2; assay: NCI60 one-dose screen; conditions: Homo sapiens
# [32] = tested on: OVCAR-3; assay: NCI60 one-dose screen; conditions: Homo sapiens
# [33] = tested on: OVCAR-4; assay: NCI60 one-dose screen; conditions: Homo sapiens
# [34] = tested on: SK-OV-3; assay: NCI60 one-dose screen; conditions: Homo sapiens
# [35] = tested on: RXF 393; assay: NCI60 one-dose screen; conditions: Homo sapiens
# [36] = tested on: MCF7; assay: NCI60 one-dose screen; conditions: Homo sapiens
# [37] = tested on: SR; assay: NCI60 five-dose screen; conditions: Homo sapiens, Leukemia, five-dose, read-out: GI50
# [38] = tested on: PC-3; assay: NCI60 one-dose screen; conditions: Homo sapiens; PC-3, 10 μM, one-dose; read-out: Growth percent
# [39] = HL-60, read-out: Growth percent
# [40] = K562, K-562, 10 μM, one-dose, read-out: Growth percent
# [41] = A549/ATCC, 10 μM, one-dose, read-out: Growth percent
# [42] = HCC-2998, 10 μM, one-dose, read-out: Growth percent
# [43] = SW-620, 10 μM, one-dose, read-out: Growth percent
# [44] = SNB-19, 10 μM, one-dose, read-out: Growth percent
# [45] = MDA-MB-435, 10 μM, one-dose, read-out: Growth percent
# [46] = SK-MEL-2, 10 μM, one-dose, read-out: Growth percent
# [47] = OVCAR-3, 10 μM, one-dose, read-out: Growth percent
# [48] = OVCAR-4, 10 μM, one-dose, read-out: Growth percent
# [49] = SK-OV-3, 10 μM, one-dose, read-out: Growth percent
# [50] = RXF 393, 10 μM, one-dose, read-out: Growth percent
# [51] = MCF7, 10 μM, one-dose, read-out: Growth percent
smiles,measurement,setting,value
"CC[C@]12C=CCN3CC[C@@]4(c5ccc(OC)cc5N(C)[C@H]4[C@@](O)(C(=O)OC)[C@@H]1OC(=O)CCCC[P+](c1ccccc1)(c1ccccc1)c1ccccc1)[C@@H]32 [compound 4, reference compound]",GI50,[1]; RPMI-8226,497 nM
same,GI50,[2]; HOP-92,268 nM
same,GI50,[3]; NCI-H23,1220 nM
same,GI50,[4]; NCI-H522,229 nM
same,GI50,[5]; HCC 2998,367 nM
same,GI50,[6],404 nM
same,GI50,[7]; SF-295,2750 nM
same,GI50,[8]; SF-539,1300 nM
same,GI50,[9]; SNB-75,221 nM
same,GI50,[10]; Malme-3M,273 nM
same,GI50,[11]; SK-MEL-2,279 nM
same,GI50,[12]; OVCAR-3,398 nM
same,GI50,[13]; OVCAR-8,1740 nM
same,GI50,[14]; SK-OV-3,725 nM
same,GI50,[15]; UO-31,12200 nM
same,GI50,[16]; PC-3,369 nM
same,GI50,[17],370 nM
same,GI50,[18]; read-out: GI50 Mean,750 nM
same,GI50,[19]; read-out: GI50 Mean,570 nM
same,GI50,"[20]; read-out: GI50 Mean, mean over all 60 human cancer cell lines",3520 nM
same,activity at 10 µM,[21],15.6%
same,activity at 10 µM,[22]; [39],-63.5%
same,activity at 10 µM,"[23]; K562, read-out: Growth percent",21.7%
same,activity at 10 µM,"[24]; A549, read-out: Growth percent",22.1%
same,activity at 10 µM,[25],56.1%
same,activity at 10 µM,"[26]; HCC 2998, read-out: Growth percent",15.9%
same,activity at 10 µM,"[27]; SW-620, read-out: Growth percent",29.4%
same,activity at 10 µM,"[28]; SNB-19, read-out: Growth percent",12.7%
same,activity at 10 µM,[29],18.5%
same,activity at 10 µM,"[30]; MDA-MB-435, read-out: Growth percent",-19.7%
same,activity at 10 µM,"[31]; SK-MEL-2, read-out: Growth percent",-41.6%
same,activity at 10 µM,"[32]; OVCAR-3, read-out: Growth percent",-0.29%
same,activity at 10 µM,"[33]; OVCAR-4, read-out: Growth percent",5.22%
same,activity at 10 µM,"[34]; SK-OV-3, read-out: Growth percent",-2.96%
same,activity at 10 µM,"[35]; RXF 393, read-out: Growth percent",-13.3%
same,activity at 10 µM,"[36]; MCF7, read-out: Growth percent",4.69%
CC[C@]12C=CCN3CC[C@@]4(c5ccc(OC)cc5N(C)[C@H]4[C@@](O)(C(=O)OC)[C@@H]1OC(=O)CCC[P+](c1cc(C)c(OC)c(C)c1)(c1cc(C)c(OC)c(C)c1)c1cc(C)c(OC)c(C)c1)[C@@H]32 [9e],GI50,"[1]; RPMI-8226, Leukemia, five-dose, read-out: GI50",20 nM
same,GI50,[37],144 nM
same,GI50,"[2]; HOP-92, Non-small Cell Lung Cancer, five-dose, read-out: GI50",201 nM
same,GI50,"[3]; NCI-H23, Non-small Cell Lung Cancer, five-dose, read-out: GI50",183 nM
same,GI50,"[4]; NCI-H522, Non-small Cell Lung Cancer, five-dose, read-out: GI50",198 nM
same,GI50,"[5]; HCC-2998, Colon Cancer, five-dose, read-out: GI50",195 nM
same,GI50,"[6]; HT29, Colon Cancer, five-dose, read-out: GI50",151 nM
same,GI50,"[7]; SF-295, CNS Cancer, five-dose, read-out: GI50",213 nM
same,GI50,"[8]; SF-539, CNS Cancer, five-dose, read-out: GI50",307 nM
same,GI50,"[9]; SNB-75, CNS Cancer, five-dose, read-out: GI50",195 nM
same,GI50,"[10]; MALME-3M, Melanoma, five-dose, read-out: GI50",288 nM
same,GI50,"[11]; SK-MEL-2, SK-MEL-2, Melanoma, five-dose, read-out: GI50",60 nM
same,GI50,"[11]; SK-MEL-2, melanoma SK-MEL-2, text, read-out: GI50",< 100 nM
same,GI50,"[12]; OVCAR-3, Ovarian Cancer, five-dose, read-out: GI50",147 nM
same,GI50,"[13]; OVCAR-8, Ovarian Cancer, five-dose, read-out: GI50",300 nM
same,GI50,"[14]; SK-OV-3, Ovarian Cancer, five-dose, read-out: GI50",232 nM
same,GI50,"[15]; UO-31, Renal Cancer, five-dose, read-out: GI50",1480 nM
same,GI50,"[16]; PC-3, Prostate Cancer, five-dose, read-out: GI50",192 nM
same,GI50,"[17]; MDA-MB231ATCC, Breast Cancer, five-dose, read-out: GI50",293 nM
same,GI50,"[18]; mean over Melanoma panel, read-out: Mean GI50",180 nM
same,GI50,"[19]; mean over Prostate Cancer panel, read-out: Mean GI50",250 nM
same,activity at 10 µM,"[21]; 10 μM, one-dose",-95.7%
same,activity at 10 µM,"[22]; HL-60(TB), 10 μM, one-dose, read-out: Growth percent",-97.2%
same,activity at 10 µM,[23]; [40],-97.5%
same,activity at 10 µM,[24]; [41],-92.9%
same,activity at 10 µM,"[25]; 10 μM, one-dose",-98.2%
same,activity at 10 µM,[26]; [42],-97.9%
same,activity at 10 µM,[27]; [43],-95.8%
same,activity at 10 µM,[28]; [44],-97.1%
same,activity at 10 µM,"[29]; 10 μM, one-dose",-96.8%
same,activity at 10 µM,[30]; [45],-98.2%
same,activity at 10 µM,[31]; [46],-98.2%
same,activity at 10 µM,[32]; [47],-99%
same,activity at 10 µM,[33]; [48],-98.7%
same,activity at 10 µM,[34]; [49],-97.7%
same,activity at 10 µM,[35]; [50],-98.6%
same,activity at 10 µM,[38],-97.7%
same,activity at 10 µM,[36]; [51],-94.5%
CCC12C=CCN3CCC4(c5ccc(OC)cc5N(C)C4C(O)(C(=O)OC)C1OC(=O)c1ccc(C[P+](c4ccccc4)(c4ccccc4)c4ccccc4)cc1)C32 (stereo not drawn) [compound 12],GI50,"[1]; RPMI-8226, Leukemia, read-out: GI50",325 nM
same,GI50,"[2]; HOP-92, Non-small Cell Lung Cancer, read-out: GI50",404 nM
same,GI50,"[3]; NCI-H23, Non-small Cell Lung Cancer, read-out: GI50",2810 nM
same,GI50,"[4]; NCI-H522, Non-small Cell Lung Cancer, read-out: GI50",491 nM
same,GI50,"[5]; HCC-2998, Colon Cancer, read-out: GI50",991 nM
same,GI50,"[6]; HT29, Colon Cancer, read-out: GI50",541 nM
same,GI50,"[7]; SF-295, CNS Cancer, read-out: GI50",2920 nM
same,GI50,"[8]; SF-539, CNS Cancer, read-out: GI50",1260 nM
same,GI50,"[9]; SNB-75, CNS Cancer, read-out: GI50",1110 nM
same,GI50,"[10]; MALME-3M, Melanoma, read-out: GI50",652 nM
same,GI50,"[11]; SK-MEL-2, SK-MEL-2, Melanoma, read-out: GI50",1270 nM
same,GI50,"[12]; OVCAR-3, Ovarian Cancer, read-out: GI50",704 nM
same,GI50,"[13]; OVCAR-8, Ovarian Cancer, read-out: GI50",3180 nM
same,GI50,"[14]; SK-OV-3, Ovarian Cancer, read-out: GI50",2700 nM
same,GI50,"[15]; UO-31, Renal Cancer, read-out: GI50",20000 nM
same,GI50,"[16]; PC-3, Prostate Cancer, read-out: GI50",657 nM
same,GI50,"[17]; MDA-MB231ATCC, Breast Cancer, read-out: GI50",686 nM
same,GI50,"[18]; mean over Melanoma panel, read-out: GI50 Mean",1030 nM
same,GI50,"[19]; mean over Prostate Cancer panel, read-out: GI50 Mean",1130 nM
same,GI50,"[20]; mean over all 60 human cancer cell lines, read-out: GI50 Mean",4320 nM
same,activity at 10 µM,"[21]; 10 μM, one-dose",-46.4%
same,activity at 10 µM,[22]; [39],-69%
same,activity at 10 µM,[23]; [40],-54.9%
same,activity at 10 µM,[24]; [41],31%
same,activity at 10 µM,"[25]; 10 μM, one-dose",28.7%
same,activity at 10 µM,[26]; [42],-74.6%
same,activity at 10 µM,[27]; [43],-66%
same,activity at 10 µM,[28]; [44],-72.2%
same,activity at 10 µM,"[29]; 10 μM, one-dose",-39.8%
same,activity at 10 µM,[30]; [45],-88.8%
same,activity at 10 µM,[31]; [46],-77.8%
same,activity at 10 µM,[32]; [47],-63.4%
same,activity at 10 µM,[33]; [48],7.65%
same,activity at 10 µM,[34]; [49],-13.2%
same,activity at 10 µM,[35]; [50],-61.8%
same,activity at 10 µM,[38],-21.9%
same,activity at 10 µM,[36]; [51],-52.8%
